Measurements published in PubChem BioAssay (NCI).
Several values for one entry are separate records, joined by “and”; a condition that tells them apart may be missing. Identical values can stand only once.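 Method: 48-hour compound exposure of cells in 96-well plates, five concentrations, linear interpolation of endpoints. GI50 marks 50% less growth. Definition used: TGI = concentration required for complete inhibition of growth.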

Legend:
Test in all cases: NCI anticancer screen, dose series, 48 h
HCT-116 colon = test system: HCT-116 colon
SNB-75 CNS = test system: SNB-75 CNS
NCI-H460 lung = test system: NCI-H460 lung
BT-549 breast = test system: BT-549 breast
NCI-H226 lung = test system: NCI-H226 lung
SK-OV-3 ovarian = test system: SK-OV-3 ovarian
LOX IMVI melanoma = test system: LOX IMVI melanoma
M14 melanoma = test system: M14 melanoma
A549 NSCLC = test system: A549 NSCLC
HOP-62 NSCLC = test system: HOP-62 NSCLC

Compound	GI50 (HCT-116 colon) [µM]	TGI (HCT-116 colon) [µM]	GI50 (SNB-75 CNS) [µM]	TGI (SNB-75 CNS) [µM]	GI50 (NCI-H460 lung) [µM]	TGI (NCI-H460 lung) [µM]	GI50 (BT-549 breast) [µM]	TGI (BT-549 breast) [µM]	GI50 (NCI-H226 lung) [µM]	TGI (NCI-H226 lung)	GI50 (SK-OV-3 ovarian) [µM]	TGI (SK-OV-3 ovarian) [µM]	GI50 (LOX IMVI melanoma) [µM]	TGI (LOX IMVI melanoma) [µM]	GI50 (M14 melanoma) [µM]	TGI (M14 melanoma) [µM]	GI50 (A549 NSCLC) [µM]	TGI (A549 NSCLC) [µM]	GI50 (HOP-62 NSCLC) [µM]	TGI (HOP-62 NSCLC) [µM]
O=C1NC(=N[C@@H](CO)c2ccccc2)S/C1=C\c1ccc2ncccc2c1	5.22	> 25	3.64	> 25	7.75	> 25	4.07	> 18.5	11.7	> 25 µM	8.1	> 25	6.15	> 18.3	6.16	> 25	9.83	> 25	12.7	> 25
OC1(c2ccc(Cl)c(C(F)(F)F)c2)CCN(CCCC(c2ccc(F)cc2)c2ccc(F)cc2)CC1	0.734	1.41	0.713	1.43	1.23	9.05	1.09	2.1	0.857	1.81 µM	1.31	3.17	0.821	1.52	0.828	1.52	0.837	1.58	0.945	1.7
CC1(C)N=C(N)N=C(N)N1c1ccc(CCC(=O)Nc2ccc(S(=O)(=O)F)cc2)cc1	0.425	> 100	2.42	> 100	0.253	> 100	12.6	> 100	7.35	> 100 µM	> 70.2	> 100	1.66	> 100	0.936	> 100	2.87	> 100	8.62	> 100
Cc1ccc2c(-c3ccnc(Nc4ccc5c(c4)OCCO5)n3)c(-c3ccc(C(F)(F)F)cc3)nn2n1	7.32	> 25	> 8.65	> 25	5.66	> 25	4.45	> 25	11.5	> 25 µM	3.8	> 25	1.5	6.68	3.58	9.43	13.3	> 25	24.8	> 25
N#Cc1nc2c(S(=O)(=O)c3ccc(Cl)cc3)c(N)n(Nc3cccc(Cl)c3)c2nc1C#N	0.015		0.0115	0.059	0.0704	> 100	0.131		0.106	0.322 µM and 0.302 µM	0.0858		0.0301		0.0671	0.304		> 100	0.109	
Cn1c([N+](=O)[O-])cnc1C=C1C(=O)c2ccccc2C1=O	3.77	13.1	2.99	39.6	7.1	22	3.86	12.8	13.1	47.4 µM	6.32	29.4	2.84	11.1	3.83	16.6	12.2	41.3	10.7	29.5
CC(=O)ON1CCCC(P(=O)(OCOC(=O)C(C)(C)C)OCOC(=O)C(C)(C)C)C1=O (centres undefined)	0.249	4.88	3.31	18.6	0.959	4.71	0.559	5.1	0.949	7.2 µM	0.923	13.3	0.827	15.3	1.04	6.96	0.514	18.7	0.923	7.53
CNC(=O)c1ncccc1Nc1nc(Nc2cc3c(cc2OC)CCCN3C(=O)CN(C)C)nc2[nH]ccc12	1.11	4.89	3.03	6.43	0.613	3.77	2.7	6.04	1.91	5.78 µM	1.67	5.86	1.26	4.77	1.87	5.78	0.845	4.39	1.17	4.73
N#CC1(c2ccc(NC(=O)c3cccnc3NCc3ccncc3)cc2)CCCC1	12.1	32	8.08	56.7	14.1	54.3	10.2	61	12.3	75.1 µM	21.7	> 84.1	14.3	29.2	16.1	> 67.1	17.3	> 79.7	22.4	84.9
O=C1c2cccc(Oc3ccccc3)c2C(=O)c2cccc(Oc3ccccc3)c21	> 100	> 100	9.13	42.7	> 100	> 100	22.9	> 100	> 100	> 100 µM	9.39	> 100	> 100	> 100	> 100	> 100	> 100	> 100	5.05	> 100
O=C1C=C[C@H](O)[C@@]2(CO)O[C@@H]12	1.79	3.33	11.3	23.4	26.8	> 66.1	12.4	25.5	17.3	50.7 µM	28.4	> 96.1	5.51	19.8	15.2	29	23.7	> 60.1	23.7	> 55.2
O=C(Nc1cccc(-n2cc(-c3ccncc3)c(-c3cc(O)cc(Cl)c3)n2)c1)c1ccc(N2CCOCC2)c(C(F)(F)F)c1	1.96	> 100	0.722	> 100	0.797	3.48	4.21	> 100	28.5	> 100 µM	9.63	> 100	1.03	4.61	0.774	2.74	1.64	18	3.59	58.2
CCNc1nc(O)c(/C=C2\C=Nc3ncccc32)s1	2.5	> 100	1.92	4.25	3.93	17.8	1.66	5.17	2.83	28.7 µM	2.86	9.12	3.23	47.5	4.45	26.9	16.5	> 100	2.27	7.27
O=C1/C(=C\c2ccccc2)CN(C(=O)CCN2CCCCC2)C/C1=C/c1ccccc1		0.709		6.79		5.96		1.94		16.5 µM		9.77		0.842		4.66		10.9		25.7
Cc1ccc(O)cc1Nc1ccnc2ccc(S(C)(=O)=O)cc12	3.53	> 25	0.106	1.28	10.5	> 25	5.06	17.8	5.05	> 23.6 µM	3.22	> 25	0.516	3.89	0.939	> 21.8	2.76	> 25	2.35	> 25
O=C(/C=C/C12c3ccccc3C(c3ccccc31)C1C(=O)NC(=O)C12)c1ccccn1 (centres undefined)	1.42	3.14	1.67	4.34	1.08	4.11	1.82	3.69	2.98	11.7 µM	2.4	8.31	1.11	2.51	1.83	4.12	2.34	6.86	1.75	4.15
CCN1C(=S)N(CC)C2C1NC(=S)N2/N=C/C=C/c1ccccc1OC (centres undefined)	0.326	> 36.3	0.0935	0.606	0.335	> 33.4	0.899	8.56	0.903	> 39.3 µM	0.505	> 100	0.488	12.7	0.179	0.575	0.503	> 100	0.453	> 100
Nc1nc2c(c3cnccc13)C(c1ccc(Cl)c(Cl)c1)Cc1cnccc1-2 (centres undefined)	0.432	11.2	0.368	12.1	0.428	3.99	0.57	7.3	1.23	3.94 µM	0.463	10.8	0.293	11	0.36	2.16	0.665	4.84	0.583	4.99
c1ccc(-c2[nH]ncc2-c2ccnc(-c3ccc(OCCn4ccnc4)cc3)c2)nc1	> 25	> 25	> 25	> 25	> 25	> 25	22.5	> 25	> 18.7	> 25 µM	> 25	> 25	> 25	> 25	> 25	> 25	> 25	> 25	> 25	> 25
Cc1cccc(NC(=O)c2sc3nc4c(cc3c2N)C(=O)CCC4)c1	0.333	> 100	0.272	> 39.4	0.312	> 39.3	2.68	> 96.3	5.8	> 100 µM	0.317	> 100	1	> 70	0.179	> 34.6	0.335	> 100	0.425	> 43.7
FC(F)(F)Oc1cccc(-c2cc(NCCCCCCNc3cc(-c4cccc(OC(F)(F)F)c4)nc4ccc(N5CCCC5)cc34)c3cc(N4CCCC4)ccc3n2)c1	2.21	5.54	1.66	3.16	1.84	3.4	1.78	3.72	1.86	3.69 µM	1.78	3.36	1.85	3.54	1.84	3.65	2.05	4.49	2.04	4.44
COc1ccc(C(=O)c2cc(OC)c(OC)c(OC)c2OC)cc1O	3.98	> 100	1.69	5.77	3.59	> 100	5.52	> 100	20.5	> 100 µM	3.33	90.1	4.95	> 100	3.1	> 100	5.4	> 100	4.14	> 100
CC1=C(C(=O)Nc2ccccc2)C(c2ccc(N(C)C)cc2)C(C(=O)Nc2ccccc2)=C(C)N1		> 57.3		> 100		> 100		> 88.3		> 100 µM		> 100		> 100		> 56		98.9		24.2
